Assay results taken from BindingDB's records for patent US20240368150 (Hoffmann-La Roche, 2024).

Experiments:
[1] = target: Diacylglycerol kinase alpha (Homo sapiens, UniProt P23743); assay: In Vitro DGK Inhibition Assays
Experimental: DGK α and ζ kinase use ATP to phosphorylate the substrate 1,2-dilauroyl-sn-glycerol (DLG, incorporated in the liposomes). ATP is converted to ADP as a result of this enzymatic reaction. After the kinase reaction, an ATP-depletion reagent is added to terminate the kinase reaction and deplete any remaining ATP, leaving only ADP. Second, a detection reagent is added to simultaneously convert ADP to ATP and allow the newly synthesized ATP to be converted to light using a coupled luciferase/luciferin reaction. A concentrated liposome solution was prepared in assay buffer without DTT and BSA: 2 mM of DLG in 21 mM of total liposome (2 mM DLG/8 mM PS/11 mM PC). […] The reactions were started by addition of DGK α and ζ kinases at 4 nM and 2 nM final concentrations, respectively. After 1 hour reaction, the amount of ADP formed was detected with the ADP-Glo kinase assay (Promega) according to the manufacturer instructions. Compounds were added in 11-points dose response, starting at […], 1:3 dilutions, with a final DMSO concentration of 2%. The multidrop combi was used as a liquid handler and luminescence was read with 0.5 s by the envision reader (PE).

[2] = target: Diacylglycerol kinase zeta (Homo sapiens, UniProt Q13574)
Sequence of Diacylglycerol kinase zeta (Q13574 as listed by the source): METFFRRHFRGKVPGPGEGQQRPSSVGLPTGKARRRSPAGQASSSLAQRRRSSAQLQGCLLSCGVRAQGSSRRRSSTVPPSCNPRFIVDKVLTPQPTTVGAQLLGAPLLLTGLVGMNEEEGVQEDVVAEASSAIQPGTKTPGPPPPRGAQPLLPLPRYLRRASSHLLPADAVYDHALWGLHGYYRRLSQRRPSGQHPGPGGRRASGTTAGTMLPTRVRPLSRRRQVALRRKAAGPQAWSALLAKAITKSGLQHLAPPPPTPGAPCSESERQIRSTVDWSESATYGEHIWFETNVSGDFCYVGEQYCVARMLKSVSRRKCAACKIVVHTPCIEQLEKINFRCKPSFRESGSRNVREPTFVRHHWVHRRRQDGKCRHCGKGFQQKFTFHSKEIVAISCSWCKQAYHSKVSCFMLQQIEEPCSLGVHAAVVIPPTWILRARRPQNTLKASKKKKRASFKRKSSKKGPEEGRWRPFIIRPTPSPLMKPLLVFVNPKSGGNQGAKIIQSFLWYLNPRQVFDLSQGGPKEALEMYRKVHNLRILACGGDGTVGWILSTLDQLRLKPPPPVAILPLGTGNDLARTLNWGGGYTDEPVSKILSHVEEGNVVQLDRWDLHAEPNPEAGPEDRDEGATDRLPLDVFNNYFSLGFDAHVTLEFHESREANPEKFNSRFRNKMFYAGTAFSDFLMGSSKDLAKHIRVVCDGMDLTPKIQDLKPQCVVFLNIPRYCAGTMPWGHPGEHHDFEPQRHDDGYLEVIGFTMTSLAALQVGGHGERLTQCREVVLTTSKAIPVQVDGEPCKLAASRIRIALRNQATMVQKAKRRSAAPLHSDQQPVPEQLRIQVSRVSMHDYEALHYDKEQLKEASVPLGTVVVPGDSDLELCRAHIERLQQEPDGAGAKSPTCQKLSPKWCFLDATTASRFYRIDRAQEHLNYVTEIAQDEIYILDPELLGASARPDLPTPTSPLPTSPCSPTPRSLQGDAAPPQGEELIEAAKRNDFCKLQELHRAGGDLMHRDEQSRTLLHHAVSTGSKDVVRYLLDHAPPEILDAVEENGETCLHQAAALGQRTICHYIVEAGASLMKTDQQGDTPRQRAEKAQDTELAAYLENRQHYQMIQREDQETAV

Sequence of Diacylglycerol kinase alpha (P23743 whole entry): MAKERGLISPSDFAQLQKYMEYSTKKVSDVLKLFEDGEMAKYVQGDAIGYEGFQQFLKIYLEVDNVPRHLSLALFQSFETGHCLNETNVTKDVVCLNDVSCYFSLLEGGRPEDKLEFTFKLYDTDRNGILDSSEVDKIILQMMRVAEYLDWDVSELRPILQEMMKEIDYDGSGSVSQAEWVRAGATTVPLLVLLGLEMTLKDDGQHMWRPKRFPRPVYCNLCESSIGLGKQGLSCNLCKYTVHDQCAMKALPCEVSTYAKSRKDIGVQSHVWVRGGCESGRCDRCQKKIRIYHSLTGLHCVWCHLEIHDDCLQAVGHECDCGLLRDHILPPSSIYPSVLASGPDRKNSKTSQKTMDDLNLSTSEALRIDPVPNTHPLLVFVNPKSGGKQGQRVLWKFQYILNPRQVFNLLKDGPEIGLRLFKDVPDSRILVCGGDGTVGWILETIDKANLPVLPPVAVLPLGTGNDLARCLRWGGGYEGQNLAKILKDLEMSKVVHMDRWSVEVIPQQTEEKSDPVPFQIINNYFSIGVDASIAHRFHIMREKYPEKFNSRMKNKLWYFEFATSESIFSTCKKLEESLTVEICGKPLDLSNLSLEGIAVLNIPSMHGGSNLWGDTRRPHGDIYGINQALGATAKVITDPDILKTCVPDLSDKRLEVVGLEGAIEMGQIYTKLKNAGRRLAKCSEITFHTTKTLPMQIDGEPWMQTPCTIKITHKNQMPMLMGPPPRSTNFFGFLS

SMILES	IC50 [1]	IC50 [2]
COC1(c2nnc(-c3ccc4c(c3)N(Cc3ccc(Cl)cc3)C(=O)[C@@H](N)CS4(=O)=O)o2)CCC(F)(F)CC1 [US20240368150, Example 378]	4.06 µM	1.44 µM
CN(C)C(=O)c1nnc(-c2cc3c(cc2F)S(=O)(=O)C[C@H](N)C(=O)N3Cc2ccc(Cl)cc2)o1 [US20240368150, Example 87]	3.06 µM	3.67 µM
